Measurements from PubChem BioAssay AID1963437 (Molecular Pharmacology Branch, DTP, NCI, 2024).
“And” between values parts separate entries of the source, which are not always exact repeats. Equal values may be shown once.

Test system: OVCAR-8 complex spheroid, growth inhibition
Assay: Anticancer human tumor OVCAR-8 cell line growth inhibition [Asc];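 note: spheroids exposed to agents for 7 days before readout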;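 for viability, T/C: percent viability relative to DMSO vehicle wells taken as 100%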
Conditions: for viability, T/C: stronger effect = lower value; active = viability on the fitted dose curve at most 10% of control; inactive = the rest
Description: Multicellular complex tumor spheroid response to apoptosis pathway targeting inhibitors Alrizomadlin, Pelcitoclax, and Dasminapant in combination with a variety of drugs and investigational agents in selected tumor cell lines
The MDM2 inhibitor alrizomadlin, the Bcl-2/Bcl-xL inhibitor pelcitoclax, and the IAPs inhibitor dasminapant were evaluated both individually and in combination with standard of care and investigational anticancer small molecules within a complex spheroid model of solid tumors. . Complex spheroids include a stromal component modeled by human endothelial cells (HUVEC) and fibroblasts modeled by human mesenchymal stem cells (MSCs). The concentration ranges selected for each drug and investigational agent were based upon clinically achievable concentrations if the clinical Cmax of the agent was known.
Compounds. The drugs and investigational agents: alrizomadlin (APG-115; NSC831270), pelcitoclax (APG-1252; NSC835773), dasminapant (APG-1387;NSC834197), TAK-243 (NSC785004), copanlisib (NSC809693), olaparib (NSC753686), talazoparib (NSC767125), cobimetinib (NSC 768068), eltanexor (KPT-8602, NSC 794443), abemaciclib (NSC 768073), sotorasib (NSC818433), adagrasib (NSC 831453), MRTX-1133 (NSC 836407), Iadademestat (ORY1001, NSC 806812), and RMC-4630 (NSC839698), were obtained from the NCI Developmental Therapeutics Program Chemical Repository. The FDA-approved anticancer drug set is available from the Developmental Therapeutics Program at https://dtp.cancer.gov/organization/dscb/obtaining/available plates.htm. […] The stock solutions were prepared in dimethyl sulfoxide (DMSO, Sigma-Aldrich, St. Louis, MO, cat. D2650) at 800-fold the tested concentration and stored at -70 degrees C prior to their use. All drugs and investigational agents were tested over a range starting from a high concentration at or near the clinical Cmax and decreasing in half-log increments. If the clinical Cmax for an agent had not been determined, the highest concentration tested was 10 microM.
The patient-derived cancer (PDC) cell lines include five colon adenocarcinomas: 186277-243-T-J2-PDC, 616215-338-R-J1-PDC, 439559-082-T-J2-PDC, 463943-066-T-J2-PDC, and 519858-162-T-J1-PDC; three pancreatic carcinomas: 323965-272-R-J2-PDC, 521955-158-R6-J3-PDC, and 521955-158-R2-J5-PDC; two uterine sarcomas: 327498-152-R-J2-PDC and 993429-296-R-J1-PDC; two rhabdomyosarcomas: 755483-174-R-J1-PDC and 772245-204-R-J1-PDC; two soft tissue sarcomas: 126254-015-R-J1-PDC and 494315-158-R-J1-PDC; two malignant fibrous histiocytomas: 317291-083-R-J1-PDC and 596521-263-R-J1-PDC; two breast carcinomas: 171881-019-R-J1-PDC and 885512-296-R-J2-PDC; and one ovarian carcinoma: 6556581-035-R-J-PDC were obtained from the NCI PDMR, (https://pdmr.cancer.gov). The established cell lines HSSY-2 synovial sarcoma (RRID:CVCL 8719), SYO-1 synovial sarcoma (RRID:CVCL_7146), MPNST malignant peripheral neural sheath tumor were obtained from the Sloan Kettering Institute. The following established cell lines were purchased from the American Type Culture Collection (ATCC, Manassas, VA), Sor the received from the NCI repository:, PANC-1 pancreatic carcinoma (CRL-1469, RRID:CVCL_0480), OVCAR-5 ovarian carcinoma (RRID:CVCL_1628), OVCAR-8 ovarian carcinoma (RRID:CVCL_1629), , MCF-7 breast carcinoma (CRL-12584, RRID:CVCL_0031), MDA-MB-231 breast carcinoma (CRL-12532, RRID:CVCL_0062), NCI-H1876 small cell lung carcinoma (CRL-5902, RRID:CVCL_1503), NCI-H510A small cell lung carcinoma (HTB-184, RRID:CVCL_1565), NCI-H1417 (CRL-5869, RRID:CVCL_1469), and NCI-H196 small cell lung carcinoma (CRL-5823, RRID:CVCL_1509). Dr. Peter Houghton (Greehey Children's Cancer Research Institute, University of Texas Health Science Center, San Antonio, TX) provided Rh-18 rhabdomyosarcoma (RRID:CVCL_1659). Pooled donor human umbilical vein endothelial cells (HUVEC, Lonza, cat. CC-2519) and human mesenchymal stem cells (hMSC, Lonza, cat. PT-2501) were purchased from Lonza (Walkersville, MD).
Cell Culture. […]

[1] = curve of first compound, second compound 0.0316 µM
[2] = curve of first compound, second compound 0.1 µM
[3] = curve of first compound, second compound 0.316 µM
[4] = curve of first compound, second compound 1 µM
[5] = curve of first compound, second compound 3.16 µM
[6] = curve of first compound, second compound 10 µM
[7] = second compound 0.0316 µM, first compound 0.0316 µM
[8] = second compound 0.0316 µM, first compound 0.1 µM
[9] = second compound 0.0316 µM, first compound 0.316 µM
[10] = second compound 0.0316 µM, first compound 1 µM
[11] = second compound 0.0316 µM, first compound 3.16 µM
[12] = second compound 0.0316 µM, first compound 10 µM
[13] = second compound 0.1 µM, first compound 0.0316 µM
[14] = second compound 0.1 µM, first compound 0.1 µM
[15] = second compound 0.1 µM, first compound 0.316 µM
[16] = second compound 0.1 µM, first compound 1 µM
[17] = second compound 0.1 µM, first compound 3.16 µM
[18] = second compound 0.1 µM, first compound 10 µM
[19] = second compound 0.316 µM, first compound 0.0316 µM
[20] = second compound 0.316 µM, first compound 0.1 µM
[21] = second compound 0.316 µM, first compound 0.316 µM
[22] = second compound 0.316 µM, first compound 1 µM
[23] = second compound 0.316 µM, first compound 3.16 µM
[24] = second compound 0.316 µM, first compound 10 µM
[25] = second compound 1 µM, first compound 0.0316 µM
[26] = second compound 1 µM, first compound 0.1 µM
[27] = second compound 1 µM, first compound 0.316 µM
[28] = second compound 1 µM, first compound 1 µM
[29] = second compound 1 µM, first compound 3.16 µM
[30] = second compound 1 µM, first compound 10 µM
[31] = second compound 3.16 µM, first compound 0.0316 µM
[32] = second compound 3.16 µM, first compound 0.1 µM
[33] = second compound 3.16 µM, first compound 0.316 µM
[34] = second compound 3.16 µM, first compound 1 µM
[35] = second compound 3.16 µM, first compound 3.16 µM
[36] = second compound 3.16 µM, first compound 10 µM
[37] = second compound 10 µM, first compound 0.0316 µM
[38] = second compound 10 µM, first compound 0.1 µM
[39] = second compound 10 µM, first compound 0.316 µM
[40] = second compound 10 µM, first compound 1 µM
[41] = second compound 10 µM, first compound 3.16 µM
[42] = second compound 10 µM, first compound 10 µM

C=C(F)C(=O)N1CCN(c2nc(OCC3CCCN3C)nc3c2CCN(c2cccc4cccc(Cl)c24)C3)CC1CC#N (stereo unspecified) + Cc1c(S(C)(=O)=O)c(-c2cc(F)cc(N3CCN(c4ccc(NS(=O)(=O)c5ccc(NC(CCN6CCC(C(=O)OCCCP(=O)(O)O)CC6)CSc6ccccc6)c(S(=O)(=O)C(F)(F)F)c5)cc4)CC3)c2)c(-c2ccc(Cl)cc2)n1C(C)C
2240 nM: IC50 [2]
2250 nM: IC50 [5]
inactive: viability, T/C [7] 102% | viability, T/C [8] 92.4% | viability, T/C [9] 91.8% | viability, T/C [10] 102% | viability, T/C [11] 33% | viability, T/C [13] 95.6% | viability, T/C [14] 94.3% | viability, T/C [15] 97.7% | viability, T/C [16] 111% | viability, T/C [17] 28.5% | viability, T/C [19] 90.3% | viability, T/C [20] 99.5% | viability, T/C [21] 98.7% | viability, T/C [22] 113% | viability, T/C [23] 31.5% | viability, T/C [25] 92.1% | viability, T/C [26] 88.2% | viability, T/C [27] 96% | viability, T/C [28] 114% | viability, T/C [29] 38.1% | viability, T/C [31] 102% | viability, T/C [32] 111% | viability, T/C [33] 93.2% | viability, T/C [34] 128% | viability, T/C [35] 25.5% | viability, T/C [37] 96.4% | viability, T/C [38] 73.3% | viability, T/C [39] 92.4% | viability, T/C [40] 121% | viability, T/C [41] 26.9%
2510 nM: IC50 [4]
active: viability, T/C [12] 2.02% | viability, T/C [18] 0.39% | viability, T/C [24] 0.28% | viability, T/C [30] 1.17% | viability, T/C [36] 0.35% | viability, T/C [42] 1.06%
2330 nM: IC50 [1]
2320 nM: IC50 [3]
2150 nM: IC50 [6]

O=C(c1cc(Cc2n[nH]c(=O)c3ccccc23)ccc1F)N1CCN(C(=O)C2CC2)CC1 + Cc1c(S(C)(=O)=O)c(-c2cc(F)cc(N3CCN(c4ccc(NS(=O)(=O)c5ccc(NC(CCN6CCC(C(=O)OCCCP(=O)(O)O)CC6)CSc6ccccc6)c(S(=O)(=O)C(F)(F)F)c5)cc4)CC3)c2)c(-c2ccc(Cl)cc2)n1C(C)C
> 10000 nM: IC50 [1] | IC50 [2] | IC50 [3] | IC50 [4] | IC50 [5] | IC50 [6]
inactive: viability, T/C [7] 95.1% | viability, T/C [8] 97% | viability, T/C [9] 88.2% | viability, T/C [10] 102% | viability, T/C [11] 137% | viability, T/C [12] 114% | viability, T/C [13] 100% | viability, T/C [14] 87.9% | viability, T/C [15] 92.5% | viability, T/C [16] 98.2% | viability, T/C [17] 115% | viability, T/C [18] 137% | viability, T/C [19] 103% | viability, T/C [20] 101% | viability, T/C [21] 105% | viability, T/C [22] 110% | viability, T/C [23] 161% | viability, T/C [24] 130% | viability, T/C [25] 132% | viability, T/C [26] 96.7% | viability, T/C [27] 120% | viability, T/C [28] 120% | viability, T/C [29] 152% | viability, T/C [30] 109% | viability, T/C [31] 134% | viability, T/C [32] 106% | viability, T/C [33] 100% | viability, T/C [34] 104% | viability, T/C [35] 140% | viability, T/C [36] 107% | viability, T/C [37] 125% | viability, T/C [38] 107% | viability, T/C [39] 112% | viability, T/C [40] 124% | viability, T/C [41] 159% | viability, T/C [42] 98.9%

CCN1CCN(Cc2ccc(Nc3ncc(F)c(-c4cc(F)c5nc(C)n(C(C)C)c5c4)n3)nc2)CC1
> 1000 nM: IC50 (curve of compound)
inactive: viability, T/C (compound 0.00316 µM) 81.5% and 87.7% and 87.9% | viability, T/C (compound 0.01 µM) 101% and 93.5% and 90.3% | viability, T/C (compound 0.0316 µM) 93.1% and 93.5% and 107% | viability, T/C (compound 0.1 µM) 104% and 84.9% and 103% | viability, T/C (compound 0.316 µM) 98.6% and 100% and 98.5% | viability, T/C (compound 1 µM) 125% and 105% and 129%
